Read-outs that look alike come from different tables or passages of the source.
Key:
[1] = Particle size and zeta potential of lipoplexes by DLS; format: physicochemical; conditions: lipoplexes with pCMV-Gluc, 25 °C, 5 % glucose, N/P 3, 1 molar equivalent of DOPE
Excerpt: The capacity of the pro-APLs to interact electrostatically with nucleic acids and form lipoplexes was checked by standard agarose gel electrophoresis. […] The size (hydrodynamic diameter) and charge (zeta potential, ζ) of the lipoplexes prepared at an N/P ratio of 3 with one molar equivalent of dioleoyl-sn-glycero-3-phosphatidylethanolamine (DOPE), a lipid with fusogenic properties (Hui et al., [1996]; Zuhorn et al., [2005]), were investigated by DLS (Supplementary Table 1).
as measured by DLS. Lipoplexes were prepared at 25 °C, in 5 % glucose, at a N/P ratio of 3 and with
1 molar equivalent of DOPE.
(Gaillard et al., 2019). Data are the mean of three independent measurements (± SD).

16HBE cells [2] = experiment: Cytotoxicity, MTT assay, 16HBE; format: cell-based, human; conditions: 24 h at 37°C
Experimental: (§1) The cells were exposed for a 24-h period to increasing concentration of the pro-APLs, ranging from 500 nM to 1 mM, and cell viability was assessed using the MTT colorimetric assay (Mosmann, [1983]). For the three cell lines, viability decreased in a dose-dependent manner in response to APLs and pro-APLs (Supplementary Figures 2–4). Using the best-fit regression curve method, the IC50 value (concentration that provokes 50% inhibition of the cell growth) was calculated for each compound (Table 4). The three cell lines responded to the compounds with varying sensitivities. […] This is attributed to enzyme-mediated hydrolysis of the pro-APL compounds in the complemented culture medium or in the intracellular compartment, competing with pure pH-controlled chemical hydrolysis. According to its structure, a pro-APL may or not be a substrate for specific lipases and, thus, may or not be hydrolyzed into the parent cytotoxic compound. […]
(§2) At confluency, cells were released […]
(§3) Cells were seeded into 96-well plates (Becton-Dickinson) at the required density (vide supra) in 100 µL of serum containing culture medium. […]
(§4) Mitochondrial activity measurements (MTT assay) was used to assess cytotoxicity of the compounds.
(§5) Lipid samples were prepared from a lipid film (3.6 µmol of compound evaporated from an ethanolic solution) hydrated with aqueous glucose 5 % and vigorously vortexed for 20 s before serial dilution in aqueous glucose 5 %. For addition of lipid samples to cell culture, part of the culture medium in the culture plates prepared the day before (25 µL) was removed and replaced by lipid samples (25 µL). Negative control was obtained by adding glucose 5 % to the cells instead of lipoplexes.
(§6) After a 24-h incubation period at 37 °C, culture supernatant was removed, cells were carefully washed with PBS and MTT (100 µL, 0.5 mg/mL) in complete culture medium was added. After a 1-h incubation period at 37 °C, the MTT sol ution was removed and DMSO (100 µL) was added to lyse cells and dissolve reduced MTT. Intensity of MTT reduction was then evaluated by measuring absorbance at 492 nm. Viability of cells treated with lipids or lipoplexes was expressed as the percentage of the absorbance measured in untreated cells. Value for each sample is the mean of triplicate determinations (± SD). IC50 values were determined within the 95 % confidence interval using nonlinear regression analysis with the GraphPad Prism software (GraphPad Software, San […]
(§7) All data are representative of a triplicate determination and are presented as the mean ± SD.
(§8) Statistical significance between treatments was assessed by one-way analysis of variance (ANOVA) followed by the Dunnett multiple comparison test, using the Kaleidagraph 4.5 software (Synergy Software, Reading, PA, USA). Data were considered as statistically significant for p value less than

A549 cells [3] = experiment: Cytotoxicity, MTT assay, A549; format: cell-based, human; conditions: A549, 24 h at 37°C
Experimental: as §1, §2, §3, §4, §5, §6, §7, §8

H292 cells [4] = experiment: Cytotoxicity, MTT assay, H292; format: cell-based, human
Experimental: as §1, §2, §3, §4, §5, §6, §7, §8

[5] = CMC/CAC by pyrene fluorescent probe technique in ultrapure water; format: physicochemical; conditions: pyrene fluorescence
Experimental: The pro-APL molecules have been specifically engineered so they can be metabolized in situ under a biological stimulus to revert to the parent APL with antiproliferative activity. […] We thus aimed to determine the self-assembly properties of the APL prodrugs. […] Pyrene is a probe which fluorescence is sensitive to the polarity of the solubilizing medium. […] Fluorescence measurements were carried out in ultrapure water and data obtained for the various APLs and their prodrugs are shown in Table 2.
Pro-APLs Self-Assembly Properties
Starting from a lipid film, compounds were […]

[6] = Hydrolytic stability of the APL prodrugs monitored by 31P-NMR; format: physicochemical; conditions: for Hydrolytic stability after extended incubation: pH 7.4 and pH 4.5, 31 days at 25°C; for half-life: extrapolated from the experimental data, read-out: t1/2 (time needed for 50% hydrolysis) (converted)
Excerpt: Aqueous formulation of the APL prodrugs produces nanosized lipid aggregates that most likely enter cells through the endocytosis pathway. To produce the expected intrinsic antineoplastic effect, APL-derived phosphotriesters need to be processed into the bioactive parent APLs. The hydrolysis of the prodrugs may be under the control of a chemical stimulus, e.g., a pH decrease as observed during the maturation of endosomes, or of degradation enzymes that massively enter the endosome compartment when continuing to lysosomes. To get some information on the transformation of pro-APLs into APLs, we monitored the hydrolysis of these compounds over time, at pH 7.4 and 4.5, conditions that mimick the extracellular milieu and the environment of the late endosome, respectively. This monitoring was realized using ^31P-NMR spectroscopy, according to a previously reported method (Pierrat et al., [2013b]). Whatever the compound investigated, only one single ^31P resonance did appear during the course of the experiments, corresponding to that of the parent APL. This confirmed that hydrolysis of the pro-APLs selectively occurred at the acetal center. […] As a general trend, hydrolysis of the pro-APLs was […] under neutral conditions (i.e., pH 7.4) than under acidic ones (i.e., pH 4.5). […] Besides, substitution of one hydrogen atom with a methyl group on the acetal bridge accelerated the rate of hydrolysis of the prodrugs. […] Indeed, in biological media, the enzyme-mediated hydrolysis of such compounds can proceed far quicker than “simple” chemical hydrolysis under pH control (Pierrat et al., [2012]). […]

sheep RBC [7] = experiment: Hemolytic activity, red blood cell leakage assay; conditions: 37°C
Experimental: To evaluate this hypothesis, the hemolytic activity of the APLs and pro-APLs was measured. Sheep RBC were incubated for 1 h with escalating doses of aqueous dispersion of the compounds at 37°C. At the end of the incubation period, hemoglobin leakage was determined spectrophotometrically.
Thus, in order to better characterize the hemolytic effect of the pro-APLs, the incubation period has been extended and release of hemoglobin was measured after 24 h.
Red blood cell (RBC) leakage assay was carried out according to a previously described procedure
(Evans et al, 2013). RBC were prepared from defibrinated sheep blood. Briefly, blood sample (5 mL) was centrifuged at 500 x g for 5 min. After removal of the yellow upper layer, an equal volume of

[8] = set-up: method as in Gaillard et al., 2019; conditions: pyrene fluorescence, ref Gaillard et al., 2019, cited from earlier work
16HBE cells [9] = test system: 16HBE cells; set-up: method as in Gaillard et al., 2019; conditions: 24 h at 37°C, MTT assay, ref Gaillard et al., 2019; cited from earlier work
sheep RBC [10] = conditions: cited from earlier work
H292 cells [11] = test system: H292 cells; set-up: method as in Gaillard et al., 2019; conditions: H292, 24 h at 37°C, MTT assay; ref Gaillard et al., 2019; cited from earlier work
A549 cells [12] = test system: A549 cells; set-up: method as in Gaillard et al., 2019; conditions: A549, 24 h at 37°C, MTT assay; ref Gaillard et al., 2019; cited from earlier work
[13] = Homo sapiens, NCI-H292, H292, 24 h at 37°C
[14] = HEPES buffer with Triton X-100, pH 7.4
[15] = potassium acetate/acetic acid buffer with Triton X-100, pH 4.5

## 3-((((((Dodecyloxy)carbonyl)oxy)methoxy)(hexadecyloxy)phosphoryl)oxy)-N,N,N-trimethylpropan-1- aminium chloride [MC12]
[1]
  Particle size of lipoplexes: 186 ± 48 nm
16HBE cells [2]
  IC50: 62 ± 15 µM
A549 cells [3]
  IC50: 151 ± 42 µM
H292 cells [4]; H292, 24 h at 37°C
  IC50: 81 ± 29 µM
[5]
  CMC (APLs) / CAC (pro-APLs): 4.1 ± 2.5 µM
[6]; pH 4.5
  H120 (hydrolysis rate after a 120-h incubation period): 3%
[6]; pH 7.4
  H120 (hydrolysis rate after a 120-h incubation period): 11%

## 3-((((((Dodecyloxy)carbonyl)oxy)methoxy)(octadecyloxy)phosphoryl)oxy)-N,N,N-trimethylpropan-1-aminium chloride [PC12]
[1]
  Particle size of lipoplexes: 576 ± 41 nm
16HBE cells [2]
  IC50: 82 ± 33 µM
A549 cells [3]
  IC50: 89 ± 24 µM
H292 cells [4]; H292, 24 h at 37°C
  IC50: 73 ± 17 µM
[5]
  CMC (APLs) / CAC (pro-APLs): 4.5 ± 1.6 µM
[6]; pH 4.5
  H120 (hydrolysis rate after a 120-h incubation period): 6%
[6]; pH 7.4
  H120 (hydrolysis rate after a 120-h incubation period): 6%

## CCCCCCCCCCCCCCCCOP(=O)(OCCCCCCCCCCCC)OCC[N+](C)(C)C (centres unmarked) [Compound M12, 2-(((Dodecyloxy)(hexadecyloxy)phosphoryl)oxy)-N,N,N-trimethylethan-1-aminium triflate]
[1]
  Particle size of lipoplexes: 121 ± 13 nm
16HBE cells [2]; Homo sapiens
  IC50: 107 ± 14 µM
A549 cells [3]; Homo sapiens
  IC50: 46 ± 11 µM
H292 cells [4]; [13]
  IC50: 56 ± 7 µM
[5]
  CMC (APLs) / CAC (pro-APLs): 1.1 ± 0.6 µM
[6]; pH 4.5
  H120 (hydrolysis rate after a 120-h incubation period): 0%
[6]; pH 7.4
  H120 (hydrolysis rate after a 120-h incubation period): 0%
[6]
  Hydrolytic stability after extended incubation: fully stable
Sheep RBC [7]; 1 h
  HA200 (hemolytic activity at 200 μM): 13.1 ± 1.0%
Sheep RBC [7]; 24 h
  HA200 (hemolytic activity at 200 μM): 63.9 ± 8.1%

## CCCCCCCCCCCCCCCCCCOP(=O)(OCCCCCCCCCCCC)OC1CC[N+](C)(C)CC1.[Cl-] (centres unmarked) [Compound P12, 4-(((Dodecyloxy)(octadecyloxy)phosphoryl)oxy)-1,1-dimethylpiperidin-1-ium chloride]
[1]
  Particle size of lipoplexes: 348 ± 43 nm
16HBE cells [2]; Homo sapiens
  IC50: 72 ± 7 µM
A549 cells [3]; Homo sapiens
  IC50: 56 ± 7 µM
H292 cells [4]; [13]
  IC50: 63 ± 5 µM
[5]
  CMC (APLs) / CAC (pro-APLs): 1.2 ± 0.4 µM
[6]; pH 4.5
  H120 (hydrolysis rate after a 120-h incubation period): 0%
[6]; pH 7.4
  H120 (hydrolysis rate after a 120-h incubation period): 0%
[6]
  Hydrolytic stability after extended incubation: fully stable
Sheep RBC [7]; 1 h
  HA200 (hemolytic activity at 200 μM): 8.1 ± 0.9%
Sheep RBC [7]; 24 h
  HA200 (hemolytic activity at 200 μM): 35.7 ± 4.1%

## CCCCCCCCCCCCCCCCOP(=O)(OCC[N+](C)(C)C)OC(C)OC(=O)CCCCCCCCCCC.[Cl-] (centres unmarked) [M E^′12, 2-(((1-(Dodecanoyloxy)ethoxy)(hexadecyloxy)phosphoryl)oxy)-N,N,N-trimethylethan-1-aminium chloride]
[1]
  Particle size of lipoplexes: 86 ± 3 nm
16HBE cells [2]; Homo sapiens
  IC50: 49 ± 6 µM
A549 cells [3]; Homo sapiens
  IC50: 139 ± 32 µM
H292 cells [4]; [13]
  IC50: 59 ± 10 µM
[5]
  CMC (APLs) / CAC (pro-APLs): 1.3 ± 0.7 µM
[6]; [14]
  half-life: 18 h
[6]; pH 4.5
  H120 (hydrolysis rate after a 120-h incubation period): 91%
[6]; pH 7.4
  H120 (hydrolysis rate after a 120-h incubation period): 89%
[6]; [15]
  half-life: 17 h
Sheep RBC [7]; 24 h
  HA200 (hemolytic activity at 200 μM): 101.7 ± 1.8%

## CCCCCCCCCCCCCCCCCCOP(=O)(OC1CC[N+](C)(C)CC1)OC(C)OC(=O)CCCCCCCCCCC.[Cl-] (centres unmarked) [P E^′12, 4-(((1-(Dodecanoyloxy)ethoxy)(octadecyloxy)phosphoryl)oxy)-1,1-dimethylpiperidin-1-ium chloride]
[1]
  Particle size of lipoplexes: 610 ± 54 nm
16HBE cells [2]; Homo sapiens
  IC50: 60 ± 5 µM
A549 cells [3]; Homo sapiens
  IC50: 148 ± 38 µM
H292 cells [4]; [13]
  IC50: 116 ± 25 µM
[5]
  CMC (APLs) / CAC (pro-APLs): 2.3 ± 1.4 µM
[6]; [14]
  half-life: 84 h
[6]; pH 4.5
  H120 (hydrolysis rate after a 120-h incubation period): 60%
[6]; pH 7.4
  H120 (hydrolysis rate after a 120-h incubation period): 60%
[6]; [15]
  half-life: 90 h
Sheep RBC [7]; 24 h
  HA200 (hemolytic activity at 200 μM): 80.1 ± 0.2%

## CCCCCCCC/C=C\CCCCCCCCOP(=O)(OCCC[N+](C)(C)C)OCOC(=O)OCCCCCCCCCCCC.[Cl-] (centres unmarked) [PC18:1, 3-((((((Dodecyloxy)carbonyl)oxy)methoxy)(oleyloxy)phosphoryl)oxy)-N,N,N-trimethylpropan-1-aminium chloride]
[1]
  Particle size of lipoplexes: 489 ± 130 nm
16HBE cells [2]; Homo sapiens
  IC50: 207 ± 49 µM
A549 cells [3]; Homo sapiens
  IC50: 273 ± 69 µM
H292 cells [4]; [13]
  IC50: 186 ± 42 µM
[5]
  CMC (APLs) / CAC (pro-APLs): 2.3 ± 1.0 µM

## Erufosine [reference compound]
[8]
  CMC (APLs) / CAC (pro-APLs): 1.6 ± 0.5 µM
[8]; listed as erufosine
  CMC (APLs) / CAC (pro-APLs): 1.6 µM
16HBE cells [9]
  IC50: 19 ± 3 µM
Sheep RBC [10]
  HA200 (hemolytic activity at 200 μM): 84.9 ± 4.5%
H292 cells [11]
  IC50: 46 ± 8 µM
A549 cells [12]
  IC50: 57 ± 8 µM

Reference: article PMC7566913, “Dual Gene Delivery Reagents From Antiproliferative Alkylphospholipids for Combined Antitumor Therapy” (Frontiers in Chemistry, 2020)
